Measured values taken from PMC10261008, “A peptide triple agonist of GLP-1, neuropeptide Y1, and neuropeptide Y2 receptors promotes glycemic control and weight loss” (Scientific Reports, 2023).
Square brackets hold non-standard residues; d marks the D form. Ends that are not written are not given here.

Experiments:
[1] = biological target: T1, human GLP-1R (Homo sapiens, UniProt P43220); assay: cAMP FRET agonism at GLP-1R in H188-GLP-1R transduced HEK293 cells; assay type: cell-based; settings: FRET ratio tracking cAMP, Fig. 1A
Protocol: H188 virally transduced HEK293 cells stably expressing human GLP-1R were obtained from Novo Nordisk A/S for use in FRET assays. HEK293 C24 cells stably expressing the H188 FRET reporter were obtained by G418 selection and grown in monolayers to ∼70% confluency in 100 cm^2 tissue culture dishes and were then transfected with plasmids (11 μg/dish) encoding human GLP-1R, human Y2-R, or human Y1-R. Transfected cells were then incubated for 48 h in fresh culture media. For real-time FRET kinetic assays, cells were harvested, resuspended in 21 mL of SES buffer, and plated at 196 μL per well. […] Y1-R and Y2-R agonism to stimulate Gi proteins and to inhibit adenylyl cyclase was monitored by detecting the ability of PYY peptides, GEP44, or GEP12 to counteract the ability of Adenosine (acting through endogenous A2B receptor and Gs proteins) to increase levels of cAMP. For these assays, increased levels of cAMP were measured as an increase of the 485/535 nm FRET ratio serving as a readout for binding of cAMP to the H188 biosensor that is based on the exchange protein activated by cAMP[15].

[2] = biological target: T1, human GLP-1R; assay: SPR binding to His-tagged GLP-1R on NTA sensor; settings: in-house SPR, 0.1–100 nM, duplicate
[3] = system: DIO Wistar rats; assay: Dose escalation study of food intake and tolerability in diet-induced obese male rats; assay type: in vivo, rat; settings: s.c. once daily
Protocol: Wistar rats purchased from Charles River Laboratories (Wilmington, MA) were used in this study. The rats were provided with ad libitum access to food and water and were kept on a 12 h light/12 h dark cycle. For all other experiments, male rats (51–75 g; approximately 4 weeks of age) were fed a diet with 60% of the calories provided by fat (D12492; Research Diets, Inc; New Brunswick, NJ; 5.21 kcal/g) for approximately five months before the start of the study generate diet-induced obesity (DIO). Animals were individually housed in a temperature (22 ± 1 °C) and humidity-controlled (57 ± 4%) room. All body weight measurements were taken just before the start of the dark cycle.
GEP44 stock solutions were prepared using sterile ultra-pure H2O and gently agitated at 4 °C for > 24 h and then aliquoted and stored at − 20 °C. […] GEP12 (aliquots up to 5 mg) was dissolved in 100 µL DMSO and mixed at 1000 rpm for three min to create a stock solution. Stock solutions were diluted to working solutions in 0.9% normal saline, resulting in a final DMSO concentration of < 2%. […]
Rats were singly housed in BioDAQ cages and allowed to acclimate for at least 10 days before the start of this study. […] Body weight was assessed daily just before the start of the dark cycle. Food and water were available ad libitum and consumption was monitored continuously.

[4] = biological target: T1, human GLP-1R; assay: Agonist-activated internalization of GLP-1R; assay type: cell-based; settings: dose–response 30 pM–1 µM, duplicate
Protocol: Human GLP-1R (Gs-coupled) cell-based agonist-activated internalization assays were performed by Eurofins Discovery.

[5] = biological target: T2, human Y1-R (Homo sapiens, UniProt P25929); assay: SPR binding at Y1-R; settings: in-house SPR, 4 pM–19 µM; read-out: half-maximal binding at Y1-R
T2 construct: His tag; purchased antibodies-online Inc. ABIN7086253
T2 sequence (P25929 1-384): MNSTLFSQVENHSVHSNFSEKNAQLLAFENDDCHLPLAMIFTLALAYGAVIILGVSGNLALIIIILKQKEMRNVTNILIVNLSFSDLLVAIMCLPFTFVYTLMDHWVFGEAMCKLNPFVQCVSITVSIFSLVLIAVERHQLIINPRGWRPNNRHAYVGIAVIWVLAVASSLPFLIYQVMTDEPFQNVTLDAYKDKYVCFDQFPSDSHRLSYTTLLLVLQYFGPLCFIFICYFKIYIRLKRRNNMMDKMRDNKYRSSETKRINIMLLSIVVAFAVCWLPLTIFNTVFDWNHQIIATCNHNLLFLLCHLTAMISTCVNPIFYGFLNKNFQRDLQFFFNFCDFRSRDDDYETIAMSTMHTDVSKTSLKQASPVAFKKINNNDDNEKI
Protocol: Peptides were precipitated with cold (4 °C) diethyl ether and purified on an Agilent 1200 series High-Performance Liquid Chromatography (HPLC) instrument (10–75% HPLC-grade acetonitrile for 20 min at a 2 mL/min flow rate over an Agilent Zorbax C18 column (5 µm, 9.4 × 250 mm) tracked at 220, 254, and 280 nm. Peptides were purified to > 95%. Peptide binding was assayed by EuroscreenFast (Gosselies, Belgium) or in-house with a Nicoya Open Surface Plasmon Resonance (SPR) instrument. Internalization and β-arrestin recruitment assays were performed by Eurofins Discovery (Fremont, CA, USA).
Peptide binding to human Y1-R was performed in-house by SPR.

[6] = biological target: T3, human Y2-R (Homo sapiens, UniProt P49146); assay: Radioligand competitive binding assay at Y2-R in CHO-K1 cells; settings: 1 pM–1 µM, duplicate independent runs, read-out: half-maximal binding at Y2-R
T3 sequence (P49146 1-381): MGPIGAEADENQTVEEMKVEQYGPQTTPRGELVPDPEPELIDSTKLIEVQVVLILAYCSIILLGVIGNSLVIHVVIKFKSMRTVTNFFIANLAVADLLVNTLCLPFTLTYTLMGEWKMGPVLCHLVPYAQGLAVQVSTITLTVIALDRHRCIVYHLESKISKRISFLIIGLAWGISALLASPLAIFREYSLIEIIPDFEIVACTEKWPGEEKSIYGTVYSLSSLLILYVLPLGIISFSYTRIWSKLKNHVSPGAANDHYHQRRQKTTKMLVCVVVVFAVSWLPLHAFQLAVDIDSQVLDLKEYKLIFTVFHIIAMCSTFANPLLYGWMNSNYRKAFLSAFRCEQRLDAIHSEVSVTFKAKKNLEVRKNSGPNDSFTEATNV

[7] = biological target: T3, human Y2-R; assay: Y2-R agonism: counteraction of adenosine-stimulated cAMP (FRET) in HEK293 C24 cells transfected with Y2-R; assay type: cell-based; settings: HEK293 C24 cells transiently transfected with Y2-R, 20 min pre-treatment; also reported previously [16]; read-out: IC50, inhibition of adenosine-stimulated cAMP production at Y2-R
Protocol: H188 virally transduced HEK293 cells stably expressing human GLP-1R were obtained from Novo Nordisk A/S for use in FRET assays. HEK293 C24 cells stably expressing the H188 FRET reporter were obtained by G418 selection and grown in monolayers to ∼70% confluency in 100 cm^2 tissue culture dishes and were then transfected with plasmids (11 μg/dish) encoding human GLP-1R, human Y2-R, or human Y1-R. Transfected cells were then incubated for 48 h in fresh culture media. For real-time FRET kinetic assays, cells were harvested, resuspended in 21 mL of SES buffer, and plated at 196 μL per well. Plated cells were pretreated with 4 μL of agonist, or antagonist (Ex9-39 (GLP-1R antagonist) or BIIE0246 (Y2-R antagonist)), at a given target concentration and incubated for 20 min before performing the assay. Y1-R and Y2-R agonism to stimulate Gi proteins and to inhibit adenylyl cyclase was monitored by detecting the ability of PYY peptides, GEP44, or GEP12 to counteract the ability of Adenosine (acting through endogenous A2B receptor and Gs proteins) to increase levels of cAMP. For these assays, increased levels of cAMP were measured as an increase of the 485/535 nm FRET ratio serving as a readout for binding of cAMP to the H188 biosensor that is based on the exchange protein activated by cAMP[15].

[8] = system: lean and diet-induced obese (DIO) rats; parameters: method as in PMID 33449689; settings: rat, in vivo; cited from earlier work
[9] = biological target: T1, human GLP-1R; assay: β-arrestin-2 recruitment at GLP-1R; assay type: cell-based; settings: dose–response 5.51 pM–551 nM, duplicate
[10] = system: patients; settings: cited from earlier work

T1 sequence (P43220 24-463): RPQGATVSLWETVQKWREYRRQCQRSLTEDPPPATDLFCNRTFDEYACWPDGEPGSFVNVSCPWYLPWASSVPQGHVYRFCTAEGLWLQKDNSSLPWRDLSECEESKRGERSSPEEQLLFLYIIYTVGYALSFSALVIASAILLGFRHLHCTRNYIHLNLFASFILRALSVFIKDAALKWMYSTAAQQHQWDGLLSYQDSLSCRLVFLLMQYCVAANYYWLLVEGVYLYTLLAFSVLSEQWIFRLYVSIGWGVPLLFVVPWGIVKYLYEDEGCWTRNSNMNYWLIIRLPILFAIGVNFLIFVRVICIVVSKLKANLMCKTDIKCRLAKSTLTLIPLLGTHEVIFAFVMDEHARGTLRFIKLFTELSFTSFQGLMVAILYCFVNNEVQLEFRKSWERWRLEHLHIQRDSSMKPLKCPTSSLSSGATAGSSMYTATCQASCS

Substance: F[dS]QGTFTSDLSKYLEEEAVREFIAWLKNGGPSRHYLNLVTRQRY-NH2 [GEP12]
- EC50 [1]: 17.3 nM
- IC50 [2]: 19.2 nM

Substance: H[dS]QGTFTSDLSKYLEEEAVREFIAWLKNGGPSRHYLNLVTRQRY-NH2 [GEP44]
- no observed adverse effect level (NOAEL) [3]: 20 nmol/kg/day
- EC50 [4]: 3.97 nM
- IC50 [5]: 86.6 nM
- IC50 [6]: 65.8 nM
- IC50 [7]: 34 nM
- visceral malaise [8]: no visceral malaise
- EC50 [9]: 1.59 nM

Substance: tirzepatide
- patients achieving a weight loss of 20% and more ([10]; 10 or 15 mg per week): at least 50%
- diarrhea, incidence ([10]; human, in vivo): 15–17%
- discontinuation of treatment due to gastrointestinal symptoms ([10]; human, in vivo): 3–7%
- nausea, incidence ([10]; human, in vivo): 12–24%
- vomiting, incidence ([10]; human, in vivo): 6–10%
